Measurements taken from article PMC7503712, “Enterovirus Inhibition by Hinged Aromatic Compounds with Polynuclei” (Molecules, 2020).

Columns and labels:
EV71 strain BrCr = experiment: Antiviral activity on the replication of EV71 strain BrCr in RD cells; format: cell-based, Enterovirus 71; conditions: for EC50: Enterovirus A, virus replication inhibited by 50%
Method: (§1) The selectivity index (SI = CC50/EC50), a measure for the therapeutic window of the compound in the assay system, was then calculated. The antiviral effect of hinged aromatic compounds that adversely affected the host cell metabolism was likely as a result of a pleiotropic or non-specific effect on the host cell. […].
(§2) The biological activity of the 18 hinged aromatic compounds against EV71 was evaluated in a cell-based assay with live enteroviruses. The EV71 strains were originated from Chang Gung University of Taiwan. The rhabdomyosarcoma (RD) cells, grown for 3–4 days in tissue culture flasks, were harvested and seeded in MEM Rega 3 medium (Gibco, Merelbeke, Belgium) supplemented with fetal bovine serum (FBS, 2.0%, Integro, Merelbeke, Belgium), 200 mM L-glutamine (Gibco, Merelbeke, Belgium), and aqueous 7.5% NaHCO3 (Gibco, Merelbeke, Belgium). The microtitre plates were incubated overnight to produce a non-confluent cell monolayer. Then assay plates were transferred to a liquid handling platform, on which a sample dilution series was prepared at a sample concentration of 0.100 mg/mL or lower in DMSO. After preparation of the hinged compound dilution series, virus was added to the wells with a dilution optimized for each EV71 strain. The final, maximal DMSO concentration that reached in the assay wells with the highest sample input (1.0%) was tolerated well by the cells. The assay plates were returned to the incubator at 37 °C (5.0% CO2) for four days. According to the manufacturers’ instructions (Promega, Leiden, The Netherlands), residual cell viability was then quantified by use of an MTS readout method.

[1] = Adverse effect on host cell metabolism (MTS method) in RD cells; format: cell-based; conditions: human, RD (rhabdomyosarcoma) cells, RD host cell metabolism reduced by 50%
Method: as §1, §2

[2] = Lipophilicity by shake-flask method with UV spectrometry; format: physicochemical; conditions: n-octane and water, 25 ± 1 °C, average of three independent experiments
Method: The log P values associated with the molecular lipophilicity of all hinged aromatic compounds with polynuclei were obtained by use of the ''shake-flask method'' [46]. The partition coefficient was measured as the ratio of the equilibrium concentrations of a dissolved hinged compound in a two-phase system consisting of n-octane and water, which are immiscible solvents. The temperature was kept constant at 25 ± 1 °C. The analytical method employed was UV spectrometry.

Row | Structure (SMILES) | EC50 (EV71 strain BrCr) | logD hydrocarbon water [2] | melting point | SI (selectivity index = CC50/EC50) (EV71 strain BrCr) | CC50 at 4 days [1]
1 | O=C(c1ccc(-c2cccc(-c3cc[nH]n3)c2)o1)N1CCCC1 [10a, (5-[3-(1H-Pyrazol-3-yl)phenyl]furan-2-yl)(pyrrolidin-1-yl)methanone] | 16.2 ± 1 µM | 3.42 |  | 7.30 | 119 ± 2 µM
2 | O=C(c1ccc(-c2cccc(-c3cc[nH]n3)c2)o1)N1CCCCC1 [10b, Piperidin-1-yl(5-[3-(1H-pyrazol-3-yl)phenyl]furan-2-yl)methanone] | 2.14 ± 0.12 µM | 3.87 |  | 6.70 | 14.3 ± 1 µM
3 | O=C(c1ccc(-c2cccc(-c3cc[nH]n3)c2)o1)N1CCCCCC1 [10c, Azepan-1-yl(5-[3-(1H-pyrazol-3-yl)phenyl]furan-2-yl)methanone] | 6.16 ± 0.15 µM | 4.22 |  | 13.1 | 81.1 ± 3 µM
4 | O=C(Nc1ccc(F)cc1)c1ccc(-c2cccc(-c3cc[nH]n3)c2)o1 [12a, N-(4-Fluorophenyl)-5-[3-(1H-pyrazol-3-yl)phenyl]furan-2-carboxamide] | < 1.73 µM | 4.18 |  |  | 4.53 ± 0.1 µM
5 | COc1ccc(NC(=O)c2ccc(-c3cccc(-c4cc[nH]n4)c3)o2)cc1 [12b, N-(4-Methoxyphenyl)-5-[3-(1H-pyrazol-3-yl)phenyl]-furan-2-carboxamide] | 2.41 ± 0.3 µM | 4.15 |  | 8.70 | 21 ± 1.5 µM
6 | CCOC(=O)c1ccc(OCCC2CCN(c3ccc(C)nn3)CC2)cc1 [Pirodavir, reference compound] | 0.3 ± 0.1 µM |  |  |  | > 54 µM
7 | O=C(NC1CC1)c1ccc(-c2cccc(-c3cc[nH]n3)c2)o1 [compound 13, N-Cyclopropyl-5-[3-(1H-pyrazol-3-yl)phenyl]furan-2-carboxamide] | 15.1 ± 1 µM | 3.25 |  |  | 
8 | COCCNC(=O)c1ccc(-c2cccc(-c3cc[nH]n3)c2)s1 [compound 14, N-(2-Methoxyethyl)-5-[3-(1H-pyrazol-3-yl)phenyl]thiophene-2-carboxamide] |  | 3.15 |  |  | 22.4 ± 2.5 µM
9 | Cn1ccc(-c2cccc(-c3ccc(C(=O)N4CCOCC4)o3)c2)n1 [compound 23, Morpholino(5-[3-(1-methyl-1H-pyrazol-3-yl)phenyl]furan-2-yl)methanone] | 34.6 ± 1 µM | 2.75 |  |  | 

More lines, main results first:

Row | EC50 (EV71 strain BrCr) | logD hydrocarbon water [2] | melting point | Structure (SMILES) | SI (selectivity index = CC50/EC50) (EV71 strain BrCr) | CC50 at 4 days [1]
10 | 11.6 ± 0.3 µM | 2.6 |  | O=C(c1ccc(-c2cccc(-c3cc[nH]n3)c2)o1)N1CCOCC1 [21a] |  | 
11 | 13 ± 2.5 µM | 2.87 |  | Cc1cc(-c2cccc(-c3ccc(C(=O)N4CCOCC4)o3)c2)n[nH]1 [21b, Morpholino-(5-[3-(5-methyl-1H-pyrazol-3-yl)phenyl]furan-2-yl)methanone] |  | 
12 |  | 3.92 |  | O=C(c1ccc(-c2cccc(-c3cc(-c4ccccc4)[nH]n3)c2)o1)N1CCOCC1 [21c, Morpholino-(5-[3-(5-phenyl-1H-pyrazol-3-yl)phenyl]furan-2-yl)methanone] |  | 4.13 ± 0.12 µM
13 |  | 4.3 |  | Cc1ccc(-c2cc(-c3cccc(-c4ccc(C(=O)N5CCOCC5)o4)c3)n[nH]2)cc1 [21d, Morpholino[5-(3-[5-(p-tolyl)-1H-pyrazol-3-yl]phenyl)furan-2-yl]methanone] |  | 3.25 ± 0.3 µM
14 | < 1.4 µM | 3.96 |  | COc1ccc(-c2cc(-c3cccc(-c4ccc(C(=O)N5CCOCC5)o4)c3)n[nH]2)cc1 [21e, Morpholino[5-(3-[5-(4-methoxyphenyl)-1H-pyrazol-3-yl]phenyl)furan-2-yl]methanone] |  | 2.09 ± 0.1 µM
15 | < 1.28 µM | 4.33 |  | O=C(c1ccc(-c2cccc(-c3cc(-c4ccc(C(F)(F)F)cc4)[nH]n3)c2)o1)N1CCOCC1 [21f, Morpholino(5-[3-(5-[4-(trifluoromethyl)phenyl]-1H-pyrazol-3-yl)phenyl]furan-2-yl)-methanone] |  | 3.28 ± 0.11 µM
16 | 241 ± 3 µM | 4.61 | 239.6 to 241.8 °C | O=C(c1ccc(-c2cccc(-c3cc(-c4ccccc4)[nH]n3)c2)s1)N1CCOCC1 [21g, Morpholino(5-[3-(5-phenyl-1H-pyrazol-3-yl)phenyl]thiophen-2-yl)methanone] |  | 
17 | 4.1 ± 0.12 µM | 4.64 |  | COc1ccc(-c2cc(-c3cccc(-c4ccc(C(=O)N5CCOCC5)s4)c3)n[nH]2)cc1 [21h, [5-(3-[5-(4-Methoxyphenyl)-1H-pyrazol-3-yl]phenyl)thiophen-2-yl](morpholino)methanone] | 10.2 | 41.9 ± 2.2 µM
18 | 2.29 ± 0.1 µM | 5.04 |  | O=C(c1ccc(-c2cccc(-c3cc(-c4ccc(C(F)(F)F)cc4)[nH]n3)c2)s1)N1CCOCC1 [21i, Morpholino(5-[3-(5-[4-(trifluoromethyl)phenyl]-1H-pyrazol-3-yl)phenyl]thiophen-2-yl)-methanone] | 33.4 | 76.4 ± 3 µM
19 | 223 ± 2 µM | 2.56 |  | Cn1c(C(=O)N2CCOCC2)ccc1-c1cccc(-c2cc[nH]n2)c1 [21j, Morpholino(5-[3-(1H-pyrazol-3-yl)phenyl]-1-methyl-1H-pyrrol-2-yl)methanone] |  | 
